Laboratory results from patent US4329295A, “24-Cyclopropylcholene-3β, 22-diols and esters thereof” (G. D. Searle & Co., priority 1981, dated 1982).

Test system: HMG Co A reductase
Experiment: Reduction of HMG Co A reductase activity in liver microsomes of rats treated with 20,25-diazacholesterol and test compound
Assay type: in vivo, rat
Conditions: male CD rats, test compound given last 3 days with 20,25-diazacholesterol, [14C]-mevalonic acid formation vs control
Method: Male rats of the CD strain from Charles River weighing 180-250 g., initially being kept on a regular laboratory diet, are used. The rats are maintained in reverse light-cycle room for 3-6 days. 20,25-Diazacholesterol is administered for a total of 6 days at a dose of 5 mg/kg/day (IG). The last 3 days the test compound is administered along with the 20,25-diazacholesterol. Both compounds are given 2 hours prior to the test on last day. The rats are anesthetized with ether, sacrificed, and the livers removed. Liver microsomes are collected by differential centrifugation after homogenation. Liver microsomes are used as the source of the HMG Co A reductase. Details of the assay are reported in L. W. White and H. Rudney, Biochemistry 9, 2713 (1970); Brown et al., J. Biol. Chem. 248, 4731 (1973); and C. A. Edwards, Biochem. Biophys. Acts 409, 39 (1975). The percent change in formation of [^ 14 C]-mevalonic acid from [^14 C]-HMG Co A is used as a measure of enzyme activity for treated groups versus control groups of rats. If the treated groups have less activity, and the decrease is statistically significant at P≤0.05, the compound is rated active.

Structure (SMILES): C[C@@H]([C@H]1CC[C@H]2[C@@H]3CC=C4C[C@@H](O)CC[C@]4(C)[C@H]3CC[C@]12C)[C@@H](O)CCC1CC1 [24-cyclopropylchol-5-ene-3β,22S-diol]
- inhibition of HMG Co A reductase activity (0.5 mg/kg (IG)): 32%
- inhibition of HMG Co A reductase activity (5 mg/kg (IG)): 79%
